In general, pIC50 refers to the IC50 on a negative log10 scale, so that one unit is a factor of ten. The low end stands for a large IC50, the high end for a small IC50. As a reminder, the melting point is the temperature of the solid-liquid transition.

Data set [1] concerns K+-stimulated isolated rat aorta. As to the kind of experiment: K+-stimulated isolated rat aorta test. Conditions: relaxation of contraction triggered by 25 mM KCl in rat aorta rings; asterisk (*) = low activity, only approximate value. As to the method: K^+-stimulated Isolated Rat Aorta Test
Male rats weighing about 300 g are killed painlessly by a blow to the neck and quickly exsanguinated. The thoracic cavity is opened and the aorta is carefully resectioned. It is placed in a Petri dish filled with Krebs solution, and surrounding connective and fatty tissue is removed. Two rings are prepared. The rings are each suspended in an organ bath, They are attached at the bottom to a hook and at the top to an electrical force transducer which is able to measure precisely contractions of 0-10 grams in strength. The measured contractions are amplified by means of a bridge amplifier and recorded with a thermal plotter.
The organ baths are filled with Krebs solution at 37° C. through which an O2/CO2 mixture is bubbled thoroughly and which has the following composition (mmol/1): NaCl 118.4; KCl 4.7; CaCl2 2.5; KH2PO4 1.2; MgSO4 1.2; NaHCO3 25; glucose 11.
The rings are stretched with a basic tone of about 0.5 g, After an equilibration time of about 30 minutes, the rings are caused to undergo contraction by depolarization (addition of 25 mM KCl to the organ bath). The contractions of the rings of aorta, triggered by the depolarization, quickly reach a plateau, As soon as this plateau is reached (“100% value”), the test substance is added to the organ bath, initially at low concentrations, for example 10^−8M, and then in increasing doses at regular intervals, until the contractions reduce or the final concentration of 10^−4M is reached. Each test substance is tested 2-4 times in this way.
For purposes of evaluation, the height of the contractions registered on the plotter paper is measured for each experiment after the action of each test concentration added. The IC50 value can be calculated in this way in relation to the original height of contractions before the addition of substance (100%).

The next data set concerns NIH 3T3 fibroblasts. As to the kind of experiment: Cell growth potentiation test (potentiation of mitogenic activity of fetal calf serum, EZ4U cellular proliferation assay). The class given is cell-based. Conditions: for Cell growth relative to FCS alone (%): 100% = same growth as base concentration of FCS alone; for Cell growth potentiation relative to minoxidil at 100 μM (%): 0% = base concentration of FCS alone (5% or 3%), 100% = minoxidil at 100 μM. The source says: To test for activity in mammalian hair growth stimulation, an in vitro test of cell growth potentiation has been applied to a number of the compounds of the invention and prior art compounds 11901 and 11903. The test involves an assay of the call growth due to potentiation of the mitogenic activity of fetal calf serum (FCS). See WO97/14036. Details of materials, methods and results are as follows.
Tissue culture plastics were obtained from Beckton Dickinson (Cowley, Oxford, UK). NIH 3T3 fibroblasts were obtained from the European collection of animal cell cultures (Salisbury, Wilts, UK). Dulbecco's modified Eagle's medium (DMEM) was obtained from Flow Laboratories (Rickmansworth, Herts, UK). L-Glutamine and fetal calf serum were from Gibco (Paisley, UK).
The EZ4U cell proliferation assay kits were obtained from Cozart Bioscience Ltd (Abingdon, Oxon, UK). All other chemicals were obtained from Sigma Chemical Company Ltd. (Poole, Dorset, UK), and of the highest grade available.
NIH 3T3 fibroblasts were maintained in Dulbecco's modified Eagle's medium supplemented with 10% FCS and 2 mM L-glutamine in 150 cm^2 tissue culture flasks at 37° C. in an atmosphere of 5% CO2/95% air. Antibiotics were omitted. Medium was changed every 3 days, and passages were carried out twice a week before cells reached confluence. Prior to experiments, cells were passaged and plated out to give 10^4 cell/ml in 96-well multi-well plates. Cells were incubated for 24 hours with Dulbecco's modified Eagle's medium supplemented with 10% FCS to aid attachment. This was then removed and the experimental medium added.
Compounds were prepared following a general preparation protocol. This protocol consisted of taking a mass of compound, dissolving in the recommended solvent (40 μl) such that in the final preparation the concentrations of compound and solvent would be 100 μM and 0.1 respectively. In theory this volume was 40 μl, however for accuracy a mass larger than the required mass was dispensed and the solvent volume varied accordingly; only 40 μl of this solution was required for the next stage. The 40 μl volume was then added to a volume of FCS (1.2 ml), such that in the final preparation the concentration of FCS would be 3%. This solution was then added to DMEM containing L-glutamine (2 mM) (18.76 ml). The resulting solution of 20 ml volume was filter stabilised. This solution is now 200 μM in compound, 6% FCS and 0.2% solvent, and so was diluted 1:1 with the DMEM containing L-glutamine. This 100 μM stock could then be diluted serially to provide lower concentrations of the compound of interest. Solutions containing different ratios of compound and FCS were obtained in a similar manner.
This was performed, following the manufacturer's instructions, using an EZ4U assay kit, which is based upon the conversion of tetrazolium salt to coloured formazam derivatives by mitochondria (Hansen et al, 1989). Plates were read on a plate reader (Anthos Labtec HT2), using a measurement filter (450 nm), with a reference filter (620 nm) with a low Shaking density for 5 seconds prior to measurement. Control experiments were made against counting cells in a haemocytometer (sanders et al, 1996). There is some variance of results between different batches of FCS employed.
A series of cell growth potentiation/inhibition tests has been carried out in accordance with the procedure described above on some of the compounds of the invention, on compounds 11901 and 11903 and on minoxidil (a compound well known for its hair growth stimulation effects). Because of some variability of results with different batches of FCS, each compound was tested in a solution of a base concentration of FCS and was compared with minoxidil in a solution of the same base concentration of FCS and with a solution having the same base concentration of FCS alone (no additive), using the same FCS batch in order to provide standardised comparisons for that compound. […]

pIC50: −log10 of the molar value.

Consider `CC1(C)C[C@@]2(SCC[S@+]2[O-])c2sc(C#N)cc2O1` (relative stereo) [Compound 50067, rel-(1S, 2S)-6′,7′-Dihydro-5′,5′-dimethylspiro[1,3-dithiolane-2,7′-5H-thieno[3,2-b]pyran]-2′-carbonitrile-1-oxide], for which, in data set [1], the pIC50 is about 4.00. Besides, the entries for the “Cell growth relative to FCS alone (%)” value in the data set on NIH 3T3 fibroblasts (Compound at 10 μM) and in the data set with NIH 3T3 fibroblasts (Compound at 100 μM) were 96% and 69%, respectively.

As for `CC1=C(C)C[C@@]2(CC(C)(C)Oc3cc(C#N)sc32)[S@+]([O-])C1` (relative stereo) [Compound 50097, rel-(1′R, 2′S)-3′,6,6′,7-Tetrahydro-4′,5,5′,5-tetramethyl-1′-oxospiro[5H-thieno[3,2-b]pyran-7,2′-2H-thiopyran]-2-carbonitrile], the melting point lay in the range of 179 to 183 °C. This compound gave a negative logarithm of the IC50 (pIC50) in data set [1] of about 5.00. The “Cell growth potentiation relative to minoxidil at 100 μM (%)” value in the data set with NIH 3T3 fibroblasts (Compound at 10 μM) is 242%. Further, in the data set on NIH 3T3 fibroblasts (Compound at 100 μM), the “Cell growth potentiation relative to minoxidil at 100 μM (%)” value amounted to 257%.

In turn, `CC1(C)Oc2cc(S(=O)(=O)c3ccccc3)sc2[C@@H](N2CCCC2=O)[C@@H]1O` (relative stereo) [Compound 50123, rel-(6S,7S)-6,7-Dihydro-6-hydroxy-5,5-dimethyl-7-(2-oxo-1-pyrrolidinyl)-2-(phenylsulphonyl)-5H-thieno[3,2-b]pyran] showed a pIC50 in data set [1] of 7.59. For the same compound, the “Cell growth potentiation relative to minoxidil at 100 μM (%)” value in the data set on NIH 3T3 fibroblasts (Compound at 10 μM) came to 120%. Moreover, in the data set with NIH 3T3 fibroblasts (Compound at 100 μM), the “Cell growth relative to FCS alone (%)” value came out at 94%.

`CC1(C)CC2(SCCCS2)c2sccc2O1` [Compound 50048, 6′,7′-Dihydro-5′,5′-dimethylspiro[1,3-dithiane-2,7′-5H-thieno[3,2-b]pyran]] had a melting point of 121 to 123 °C. The same compound had a pIC50 in data set [1] of 5.54.

The compound `CC1=C(C)CC2(CC(C)(C)Oc3ccsc32)SC1` (stereo not drawn) [Compound 50049, 3′,6,6′,7-Tetrahydro-4′,5,5,5′-tetramethylspiro[5H-thieno[3,2-b]pyran-7,2′-2H-thiopyran]] showed a melting point of 90 to 92 °C. In data set [1], this compound had a pIC50 of about 5.00. The “Cell growth relative to FCS alone (%)” value in the data set with NIH 3T3 fibroblasts (Compound at 10 μM) is 100%. Also, the “Cell growth relative to FCS alone (%)” value with NIH 3T3 fibroblasts (Compound at 100 μM) came to 50%.

On to `CC1(C)CC2(SCCCS2)c2sc(C#N)cc2O1` [Compound 50057, 6′,7′-Dihydro-5′,5′-dimethylspiro[1,3-dithiane-2,7′-5H-thieno[3,2-b]pyran]-2′-carbonitrile], for which the negative-log IC50 (pIC50) in data set [1] is about 5.00. Also, the “Cell growth relative to FCS alone (%)” value with NIH 3T3 fibroblasts (Compound at 10 μM) is 98%. The “Cell growth potentiation relative to minoxidil at 100 μM (%)” value in the data set on NIH 3T3 fibroblasts (Compound at 100 μM) is 33%.

`CC1=C(C)CC2(CC(C)(C)Oc3cc(C#N)sc32)SC1` (stereo not drawn) [Compound 50092, 3′,6,6′,7-Tetrahydro-4′,5,5,5′-tetramethylspiro[5H-thieno[3,2-b]pyran-7,2′-2H-thiopyran]-2-carbonitrile] had a melting point of 148 to 149 °C. This compound had a negative logarithm of the IC50 (pIC50) in data set [1] of about 5.00. Besides, the “Cell growth potentiation relative to minoxidil at 100 μM (%)” value in the data set on NIH 3T3 fibroblasts (Compound at 10 μM) came out at 214%. In the data set with NIH 3T3 fibroblasts (Compound at 100 μM), the “Cell growth potentiation relative to minoxidil at 100 μM (%)” value stood at 71%.

As to `CC1(C)C=C(N2CCCC2=O)c2sc(S(=O)(=O)c3ccccc3)cc2O1` [Compound 50109, 5,5-Dimethyl-7-(2-oxo-1-pyrrolidinyl)-2-(phenylsulphonyl)-5H-thieno[3,2-b]pyran], in data set [1], the pIC50 is 6.62. In addition, the “Cell growth potentiation relative to minoxidil at 100 μM (%)” value was 233% in the data set with NIH 3T3 fibroblasts (Compound at 10 μM) and 122% with NIH 3T3 fibroblasts (Compound at 100 μM).

In turn, `CC1=C(C)CC2(CC(C)(C)Oc3cc(S(=O)(=O)c4ccccc4)sc32)SC1` (stereo not drawn) [Compound 50121, 3′,6,6′,7-Tetrahydro-4′,5,5,5′-tetramethyl-2-(phenylsulphonyl)spiro[5H-thieno[3,2-b]pyran-7,2′-2H-thiopyran]] registered a melting point of 175 to 178 °C. Further, the pIC50 in data set [1] was under 4.00. Also, the “Cell growth potentiation relative to minoxidil at 100 μM (%)” value with NIH 3T3 fibroblasts (Compound at 10 μM) worked out at 285%. The “Cell growth potentiation relative to minoxidil at 100 μM (%)” value in the data set with NIH 3T3 fibroblasts (Compound at 100 μM) is on record as 271%.

Values taken from patent US6342517B1, “Potassium channel activators and their use” (Cambridge Bioclinical Limited, priority 1998, dated 2002).
